This note sets out measurements from US20170275287A1, “NOVEL N2, N4, N7, 6-TETRASUBSTITUTED PTERIDINE-2,4,7-TRIAMINE AND 2, 4, 6, 7-TETRASUBSTITUTED PTERIDINE COMPOUNDS AND METHODS OF SYNTHESIS AND USE THEREOF” (Janus Biotherapeutics, Inc., priority 2014, published 2017).

The target in the assay is T1, TLR8 (Homo sapiens, UniProt Q9NR97).
T1 construct: PBMCs were isolated from unpurified buffy coat from healthy human donors; host or cells: primary human PBMCs
T1 sequence (Q9NR97 27-1041): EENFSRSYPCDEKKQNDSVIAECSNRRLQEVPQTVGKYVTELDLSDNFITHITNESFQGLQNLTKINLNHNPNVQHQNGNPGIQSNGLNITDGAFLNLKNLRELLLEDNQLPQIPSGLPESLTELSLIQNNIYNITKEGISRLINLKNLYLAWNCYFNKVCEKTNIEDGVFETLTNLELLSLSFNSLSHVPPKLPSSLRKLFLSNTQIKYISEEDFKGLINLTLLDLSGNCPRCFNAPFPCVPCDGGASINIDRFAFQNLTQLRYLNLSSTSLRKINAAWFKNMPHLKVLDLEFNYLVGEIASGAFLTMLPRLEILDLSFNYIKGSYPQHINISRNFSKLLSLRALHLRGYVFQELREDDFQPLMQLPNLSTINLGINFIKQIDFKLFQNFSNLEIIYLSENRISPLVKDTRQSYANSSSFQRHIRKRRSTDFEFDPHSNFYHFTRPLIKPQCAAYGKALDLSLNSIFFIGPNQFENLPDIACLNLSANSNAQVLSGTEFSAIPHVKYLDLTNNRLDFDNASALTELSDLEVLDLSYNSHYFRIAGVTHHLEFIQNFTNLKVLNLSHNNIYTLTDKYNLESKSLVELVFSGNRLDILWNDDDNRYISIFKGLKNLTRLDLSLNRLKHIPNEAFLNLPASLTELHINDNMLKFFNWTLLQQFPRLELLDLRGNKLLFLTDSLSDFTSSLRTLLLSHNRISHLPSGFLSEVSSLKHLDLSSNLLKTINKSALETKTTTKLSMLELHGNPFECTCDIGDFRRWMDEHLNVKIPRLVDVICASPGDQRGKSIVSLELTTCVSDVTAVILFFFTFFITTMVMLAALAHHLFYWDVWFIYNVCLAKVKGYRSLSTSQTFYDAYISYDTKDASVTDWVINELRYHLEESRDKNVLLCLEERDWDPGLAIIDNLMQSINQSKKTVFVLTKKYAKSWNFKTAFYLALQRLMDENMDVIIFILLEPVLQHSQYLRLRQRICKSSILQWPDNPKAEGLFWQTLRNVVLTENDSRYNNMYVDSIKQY
Briefly: TLR8 antagonist assay in human PBMCs (ORN1075, TNFα ELISA). It is filed as cell-based. As to conditions: human PBMC, 0.5 μM ORN1075, TNFα readout. As to the method: PBMCs were isolated from unpurified buffy coat from healthy human donors (Blood Research Components, LLC). For antagonist testing, cells were plated on 96-well U-bottom plates at 3×10^6 cells/ml. Antagonist compounds were added to cells in duplicate wells and titrated from 10 μM in 1:3 serial dilutions (8 antagonist concentrations tested in total). After approximately 30 minutes, cells were stimulated with agonist compound (see table 2 for agonist concentrations). After stimulation, cells were incubated overnight at 37° C. To increase the stability of the ssRNA, 3 μg/ml DOTAP (Roche) was added to ORN1075 agonist solutions. All dilutions were made in RPMI-1640 media (Sigma, cat.# R7388)+5% human male AB sera (Sigma, cat.# H4522)+1× Penicillin/Streptomycin solution (VWR, cat.#82026-730).
TLR activity was measured in PBMCs and neutrophils by ELISA using cytokine readouts specific for the TLR of interest.
TNFα was used as a readout for TLR8 activity in PBMCs and neutrophils stimulated with ORN1075 (See Table 3 for concentrations) using the ELISA Max™ Deluxe Set Human TNFα kit (BioLegend, cat.#430206). Supernatant from PBMCs was diluted 1:50 and from neutrophils at 1:3 in 1× Assay Diluent (BioLegend). ELISAs were run according to the kit product specifications. Absorbance at 450 nm was recorded using a Molecular Devices SpectraMax340PC plate reader. The IC50 for each antagonist was subsequently calculated following the method described below.
Raw ELISA datasets for each 96-well plate, consisting of absorbance readings at […], were first imported in Microsoft Excel to calculate the average absorbance for each standard or antagonist concentration. The averaged data was then imported into SigmaPlot v.11.0 where a standard curve was calculated and used to extrapolate the relative concentration of TLR readout (TNFα, IFNα, etc.) produced. The dose-response curve of each antagonist was then plotted with SigmaPlot v.11.0 on a Log scale. Concentrations of TLR readout were converted to a percentage relative to the average maximum concentration for that ELISA plate in Microsoft Excel. The IC50 for each antagonist was then determined with the SigmaPlot regression wizard using a 4-parameter Hill equation. Each antagonist was tested in a minimum of 3 independent experiments and IC50 results were compiled and averaged using Microsoft Excel.
(In general: In an ELISA, binding on a coated surface is turned into a signal by an enzyme label.)
Usually IC50 stands for the concentration that inhibits the measured activity by half. The low end stands for inhibition by little substance, the high end for a need for much substance. Take `CN1CCN(c2nc(NCCN3CCOCC3)c3ncc(-c4ccccc4)nc3n2)CC1` [JB6059]: it took 273 nM to reach half-maximal inhibition (IC50). Under `CN1CCN(c2nc3nc(-c4ccccc4)nc(NCCN4CCOCC4)c3nc2OCCN2CCOCC2)CC1` [JB6116] stands 658 nM; under `CN1CCN(c2nc(NCCN3CCOCC3)c3nc(Cl)c(NCCN4CCOCC4)nc3n2)CC1` [JB6121, 6-chloro-2-(4-methylpiperazin-1-yl)-N^4,N^7-bis(2-morpholinoethyl)pteridine-4,7-diamine], 514 nM; under `CCOc1nc2c(NCCN3CCCC3)nc(-c3ccccc3)nc2nc1N1CCN(C)CC1` [JB6131], 78 nM. `CCCCNc1nc(NCCN2CCOCC2)c2nc(Cl)c(NCCN3CCOCC3)nc2n1` [JB6140]: the IC50 amounted to 754 nM. Under `C[C@@H]1CN(CCNc2nc3nc(N4CCN(C)CC4)nc(NCCN4C[C@@H](C)O[C@@H](C)C4)c3nc2Cl)C[C@H](C)O1` [JB6143] stands 263 nM; under `Clc1nc2c(NCCN3CCOCC3)nc(N3CCOCC3)nc2nc1NCCN1CCOCC1` [JB6147], 7300 nM. Under `COCCN1CCN(c2nc(NCCN3CCOCC3)c3nc(Cl)c(NCCN4CCOCC4)nc3n2)CC1` [JB6160] stands 219 nM; under `Clc1nc2c(NCCN3CCOCC3)nc(NCc3ccccc3)nc2nc1NCCN1CCOCC1` [JB6172], 246 nM; under `CCOc1nc2c(NCCN3CCOCC3)nc(NCc3ccccc3)nc2nc1NCCN1CCOCC1` [JB6180], 151 nM. The molecule `CCCCNc1nc(NCCN2CCOCC2)c2nc(SCC)c(NCCN3CCOCC3)nc2n1` [JB6185] had an IC50 of 136 nM.
